One data set deals with Thymidylate synthase (Homo sapiens, UniProt P04818). Put plainly: Inhibition of thymidylate synthase (TS) in human. The settings on record: read-out: I50.
Another data set has as its target T1, Dihydrofolate reductase (Homo sapiens, UniProt P00374).
T1 sequence (P00374 whole entry): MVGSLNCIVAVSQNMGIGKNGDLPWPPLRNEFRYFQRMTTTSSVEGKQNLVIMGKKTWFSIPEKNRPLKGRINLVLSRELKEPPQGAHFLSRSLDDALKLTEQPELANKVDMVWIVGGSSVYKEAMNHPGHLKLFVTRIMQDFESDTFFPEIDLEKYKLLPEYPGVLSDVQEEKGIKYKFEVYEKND
Put plainly: Inhibition of dihydrofolate reductase (DHFR) in WIL2 cells. The format is cell-based. The settings on record: read-out: I50.

The subject of another data set is MCF7. Put plainly: Effective dose which is required to inhibit 50% of the cell growth of MCF-7 cells in culture. The format is functional. The settings on record: Homo sapiens, read-out: ED50 (the source's name).
The nature of data set [1]: Ratio of relative Vmax values to that of apparent Km values. The format is ADME.
In data set [2] the test system is Folyl-polyglutamate synthase. Briefly: (§1) Compound was evaluated for the substrate activity for hog liver Folyl-polyglutamate synthase. The format is ADME, tissue-based, Sus scrofa. The settings on record: pig, hog liver folylpolyglutamate synthase; read-out: Km app.
A further data set concerns MOLT-4. Briefly: Inhibition of the uptake of [3H]MTX influx into MOLT-4 cells. The format is functional, cell-based, Homo sapiens.
In data set [3] the target is Bifunctional purine biosynthesis protein ATIC (Homo sapiens, UniProt P31939). Put plainly: Inhibition of 5-aminoimidazole-4-carboxamide AICAR formyltransferase in MOLT-4 cells. The format is cell-based. The conditions noted are these: read-out: I50.
Chain of Bifunctional purine biosynthesis protein ATIC (P31939 whole entry): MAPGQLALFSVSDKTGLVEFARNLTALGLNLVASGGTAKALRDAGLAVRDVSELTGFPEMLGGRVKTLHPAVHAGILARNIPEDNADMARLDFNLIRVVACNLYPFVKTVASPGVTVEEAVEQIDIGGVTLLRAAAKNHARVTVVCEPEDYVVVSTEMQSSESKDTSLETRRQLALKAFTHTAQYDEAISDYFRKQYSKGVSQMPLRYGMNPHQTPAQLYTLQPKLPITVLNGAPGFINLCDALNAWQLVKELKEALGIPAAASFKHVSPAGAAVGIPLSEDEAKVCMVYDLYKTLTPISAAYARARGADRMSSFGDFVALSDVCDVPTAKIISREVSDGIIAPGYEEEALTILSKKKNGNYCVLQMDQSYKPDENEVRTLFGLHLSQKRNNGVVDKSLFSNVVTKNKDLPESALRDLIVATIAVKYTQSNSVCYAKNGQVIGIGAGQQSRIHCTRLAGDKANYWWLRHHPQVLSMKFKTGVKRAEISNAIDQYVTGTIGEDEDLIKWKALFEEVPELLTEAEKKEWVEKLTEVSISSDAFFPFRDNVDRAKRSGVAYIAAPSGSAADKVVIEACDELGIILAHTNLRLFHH
The species named for data set [4] is Sus scrofa. The data set is described as §1.
The species entered for data set [5] is Sus scrofa. Put plainly: Compound was evaluated for the substrate activity for hog liver […] synthetase.

Chain of Thymidylate synthase (P04818 whole entry): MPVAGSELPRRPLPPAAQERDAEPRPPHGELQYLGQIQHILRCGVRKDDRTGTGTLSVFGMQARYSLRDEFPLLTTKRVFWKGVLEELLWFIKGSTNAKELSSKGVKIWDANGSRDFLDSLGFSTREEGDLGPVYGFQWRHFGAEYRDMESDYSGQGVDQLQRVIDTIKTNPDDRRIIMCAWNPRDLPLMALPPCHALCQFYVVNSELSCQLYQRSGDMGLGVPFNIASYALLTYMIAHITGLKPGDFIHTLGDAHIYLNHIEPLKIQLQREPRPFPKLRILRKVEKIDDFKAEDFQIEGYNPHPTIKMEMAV

For `Nc1nc(N)c(CCCNc2ccc(C(=O)N[C@@H](CCC(=O)O)C(=O)O)cc2)c(O)n1`, the IC50 on Thymidylate synthase and on Dihydrofolate reductase was over 100 µM throughout. Also, the EC50 in the data set on MCF7 was 0.037 µM. Moreover, the Ratio in data set [1] was 14.9. Besides, the Km in data set [2] amounted to 6.7 µM. In addition, in the data set on MOLT-4, the affinity corresponds to a Ki of 1 µM.
Take `Nc1nc(O)c2cc(N(C=O)Cc3ccc(C(=O)NC(CCC(=O)O)C(=O)O)cc3)cnc2n1` (configuration not stated): the figures for the IC50 (at Thymidylate synthase; on Dihydrofolate reductase; in [3]) were 28.8 µM, 1.95 µM and 49.9 µM, respectively. In the data set on MCF7, the EC50 is over 100 µM. Moreover, the Km in the data set listed under Sus scrofa [4] is over 100 µM.
In the case of `CN(Cc1ccc(C(=O)NC(CCC(=O)O)C(=O)O)cc1)C1CNc2nc(N)nc(O)c2C1` (configuration not stated), in the data set listed under Sus scrofa [5], the Km worked out at 9.4 µM. The IC50 was over 100 µM at Thymidylate synthase, over 1000 µM at Dihydrofolate reductase and over 100 µM in data set [3]. For the same compound, in the data set on MCF7, the EC50 is 4.5 µM. Further, the Ratio in data set [1] was found to be 7. Besides, the affinity in the data set on MOLT-4, expressed as Ki, was 22 µM.
Consider `Nc1nc(O)c2c(n1)NCC(CCc1ccc(C(=O)NC(CCC(=O)O)C(=O)O)cc1)C2` (configuration not stated), for which the IC50 on Thymidylate synthase was over 1000 µM; on Dihydrofolate reductase, over 100 µM. Moreover, the EC50 in the data set on MCF7 is 0.018 µM. In the data set listed under Sus scrofa [4], the Km turned out to be 17.5 µM. The compound also came in with a Ki in the data set on MOLT-4 of 1.5 µM.
Turning to `CN(Cc1ccc(C(=O)NC(CCC(=O)O)C(=O)O)cc1)c1cnc2nc(N)nc(O)c2c1` (configuration not stated), the values for the IC50 (on Thymidylate synthase; on Dihydrofolate reductase; in data set [3]) were 0.48 µM, 0.25 µM and 141 µM, respectively. Besides, in the data set with MCF7, the EC50 was 35 µM. The Ratio in data set [1] was 0.85. Besides, the Km in the data set filed under Sus scrofa [4] was 55.3 µM.
As to `Nc1nc(O)c2c(n1)NCC(NCc1ccc(C(=O)NC(CCC(=O)O)C(=O)O)cc1)C2` (configuration not stated), the IC50 at Thymidylate synthase was over 100 µM; at Dihydrofolate reductase, over 1000 µM; in data set [3], over 100 µM. Moreover, the EC50 in the data set with MCF7 turned out to be 1.2 µM. Also, the Ratio in [1] was 1. Further, the Km in the data set listed under Sus scrofa [4] was found to be 67.4 µM. Further, in the data set on MOLT-4, the inhibition constant Ki was found to be 17.5 µM.
For the compound `Nc1nc(O)c2cc(NCc3ccc(C(=O)NC(CCC(=O)O)C(=O)O)cc3)cnc2n1` (configuration not stated), the values for the IC50 (on Thymidylate synthase; on Dihydrofolate reductase; in [3]) were 7.1 µM, 0.21 µM and 62.8 µM, respectively. Also, the EC50 with MCF7 was over 100 µM. Also, in the data set filed under Sus scrofa [4], the Km stood at 133 µM. In the data set with MOLT-4, this compound returned a Ki of over 30 µM.

The term Km denotes the substrate concentration at which the rate is half of its maximum. The term Ki denotes a measure of affinity in units of concentration, obtained from inhibition or displacement. Low values mean higher affinity, high ones lower affinity.

These data come from ChEMBL document CHEMBL1125239, “Synthesis and biological evaluation of 5-deazaisofolic acid, 5-deaza-5,6,7,8-tetrahydroisofolic acid, and their N9-substituted analogues” (J Med Chem, 1991).
